Laboratory results reported in ChEMBL document CHEMBL1122466, “Synthesis of partially modified retro-inverso substance P analogues and their biological activity” (1983).
Residues, ends and D or L forms follow the SMILES beside them.

Experiments:
Cavia porcellus [1] = species on record: Cavia porcellus; assay: Relative potency in guinea pig ileum assay.; type: functional
Cavia porcellus [2] = species on record: Cavia porcellus; assay: ED50 represents the concentration of the agonist in the organ bath corresponding to 50% of the maximal measured spasmogenic effect.; type: functional

Structure (SMILES) | Relative potency (Cavia porcellus [1]) | ED50 (Cavia porcellus [2]) [nM]
CSCC[C@@H](NC(=O)[C@H](CC(C)C)NC(=O)CC(=O)N[C@H](Cc1ccccc1)NC(=O)[C@@H](Cc1ccccc1)NC(=O)[C@@H]1CCC(=O)N1)C(N)=O | 22 | 0.9
CSCC[C@H](NC(=O)[C@H](CC(C)C)NC(=O)CNC(=O)[C@H](Cc1ccccc1)NC(=O)[C@@H](Cc1ccccc1)C(=O)N[C@@H]1CCC(=O)N1)C(N)=O (HELM PEPTIDE1{[O=C1CC[C@@H](NC(=O)[C@H](Cc2ccccc2)C(=O)[*:2])N1].F.G.L.M.[am]}$$$$V2.0) | <0.01 | –
